Test results from EP0639202B1, “STABLE POLYPEPTIDE COMPOSITION” (COR THERAPEUTICS, INC., priority 1992, dated 1993).
Where a SMILES comes first, the peptide text is derived from it. Bridges are numbered along the chain shown (N, C = ends). [ ]: non-standard residue; d: D form. hArg = N=C(N)NCCCC[C@H](N)C(=O)O; Mpa = O=C(O)CCS

Columns and labels:
[1] = Storage stability of polypeptide in citrate buffer solution, analysed by reversed phase HPLC; type: physicochemical
Experimental: One ml aliquots of the above solution of polypeptide in citrate buffer were sealed in borosilicate glass ampules under sterile conditions and stored at a constant temperature. Test sample ampules from each pH and temperature condition 4°C, 50°C and 70°C were removed periodically, visually assessed and then analyzed separately by HPLC using a mobile phase comprising acetonitrile (MeCN) and 0.1% trifluoroacetic (TFA) in water. This stability was evaluated by conventional assay methods applicable to purity, weight or size of polypeptides. These included not only visual evaluations, such as discoloration, transparency and precipitation, and included assays normally applied to separate polypeptides from each other and from other materials by reversed phase high performance liquid chromatography (HPLC).
Results of these experiments are set forth in Table 1 in which the stability is expressed in terms of the percentage of main peak of original polypeptide found in the sample analyzed by HPLC. The composition was also found to be normal on visual evaluation. […]

[2] = biological target: T1, GP IIb-IIIa (Homo sapiens, UniProt P05106+P08514); test: Plate assay: inhibition of fibrinogen binding to immobilized GP IIb-IIIa; conditions: for differential: inhibiting the binding of fibrinogen to GP IIb-IIIa as compared to vitronectin to vitronectin receptor (in words): plate assays
T1 construct: from tissue
T1 sequence (P08514 32-887 limits assumed): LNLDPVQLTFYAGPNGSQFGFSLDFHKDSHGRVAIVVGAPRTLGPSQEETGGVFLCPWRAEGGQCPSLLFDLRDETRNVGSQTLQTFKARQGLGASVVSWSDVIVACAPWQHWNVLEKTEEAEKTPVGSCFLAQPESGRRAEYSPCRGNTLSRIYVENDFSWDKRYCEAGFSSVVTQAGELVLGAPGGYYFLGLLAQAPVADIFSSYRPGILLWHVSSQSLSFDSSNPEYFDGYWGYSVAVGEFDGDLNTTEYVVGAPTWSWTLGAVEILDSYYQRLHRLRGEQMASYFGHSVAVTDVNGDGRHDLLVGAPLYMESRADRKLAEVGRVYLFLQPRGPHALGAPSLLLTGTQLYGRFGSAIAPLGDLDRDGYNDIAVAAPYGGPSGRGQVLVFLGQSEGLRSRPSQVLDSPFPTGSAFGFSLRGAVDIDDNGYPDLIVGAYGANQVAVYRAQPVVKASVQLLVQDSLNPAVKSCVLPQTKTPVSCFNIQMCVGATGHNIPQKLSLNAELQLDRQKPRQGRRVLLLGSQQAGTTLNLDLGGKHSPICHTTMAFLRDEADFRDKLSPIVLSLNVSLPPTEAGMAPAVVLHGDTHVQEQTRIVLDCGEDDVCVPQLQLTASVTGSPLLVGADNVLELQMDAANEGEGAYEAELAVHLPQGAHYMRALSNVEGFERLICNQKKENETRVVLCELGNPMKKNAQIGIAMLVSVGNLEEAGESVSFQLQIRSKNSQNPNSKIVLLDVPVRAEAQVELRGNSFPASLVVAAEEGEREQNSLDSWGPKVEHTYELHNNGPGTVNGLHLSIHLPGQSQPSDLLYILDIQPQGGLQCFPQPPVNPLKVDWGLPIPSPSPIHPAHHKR
T1 sequence (P08514 891-1039 limits assumed): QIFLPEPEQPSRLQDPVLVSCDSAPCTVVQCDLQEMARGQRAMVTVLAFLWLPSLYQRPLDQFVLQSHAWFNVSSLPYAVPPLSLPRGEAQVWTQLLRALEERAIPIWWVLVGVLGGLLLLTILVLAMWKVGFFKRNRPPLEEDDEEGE
T1 sequence (P05106 27-788): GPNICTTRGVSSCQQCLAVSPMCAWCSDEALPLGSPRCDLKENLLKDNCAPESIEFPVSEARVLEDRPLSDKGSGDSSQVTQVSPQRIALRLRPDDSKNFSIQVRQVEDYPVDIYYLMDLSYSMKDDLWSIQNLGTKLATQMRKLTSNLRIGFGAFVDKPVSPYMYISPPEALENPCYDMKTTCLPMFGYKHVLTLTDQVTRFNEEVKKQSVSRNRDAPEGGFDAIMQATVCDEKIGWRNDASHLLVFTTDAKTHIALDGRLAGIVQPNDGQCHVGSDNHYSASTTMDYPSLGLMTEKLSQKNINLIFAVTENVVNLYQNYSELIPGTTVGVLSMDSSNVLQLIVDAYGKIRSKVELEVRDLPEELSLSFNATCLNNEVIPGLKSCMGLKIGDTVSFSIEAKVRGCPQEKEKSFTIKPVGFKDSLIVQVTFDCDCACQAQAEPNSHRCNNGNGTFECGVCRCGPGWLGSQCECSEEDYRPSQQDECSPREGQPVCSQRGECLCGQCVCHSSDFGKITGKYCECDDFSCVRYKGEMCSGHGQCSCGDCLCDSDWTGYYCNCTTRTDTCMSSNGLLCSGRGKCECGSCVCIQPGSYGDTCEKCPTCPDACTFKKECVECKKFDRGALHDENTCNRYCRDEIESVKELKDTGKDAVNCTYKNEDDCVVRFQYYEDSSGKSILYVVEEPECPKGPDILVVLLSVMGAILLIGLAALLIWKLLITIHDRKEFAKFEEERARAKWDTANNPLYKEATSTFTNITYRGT
Experimental: In the assay, GP IIb-IIIa, prepared in purified form, for example as described by Fitzgerald, L.A., et al., Anal Biochem (1985) 151:169-177, incorporated herein by reference, is coated onto a solid support such as beads, test tubes, or microtiter plates. The coated support is then contacted with fibrinogen and with the test material and incubated for a sufficient time to permit maximal binding of fibrinogen to the immobilized GP IIb-IIIa. Fibrinogen is typically provided at a concentration of about 5-50 nM and the test material can, if desired, be added at a series of dilutions. Typical incubations are 2-4 hr at 35°C, the time and temperature being interdependent.
After incubation, the solution containing the fibrinogen and test material is removed and the level of binding of fibrinogen measured by quantitating bound fibrinogen to GP IIb-IIIa. Any suitable means of detection can be used, but it is convenient to employ labeled fibrinogen, for example using radioactive, fluorescent or biotinylated labels. Such methods are well known and need not be elaborated here.
Assessment of the results is aided by employing a control sample, usually identical to the test sample except that the test substance is absent. In this case, percent inhibition may be calculated using the basis, so that % inhibition =(control - test)/(control)x 100. [formula] Other measures of inhibition effectiveness, such as IC50, can also be used.

[3] = biological target: ADP-induced human platelet aggregation (Homo sapiens, UniProt P05106+P08514); test: Standard platelet aggregation inhibition assay; type: cell-based
Chain of ADP-induced human platelet aggregation (P08514 32-1039): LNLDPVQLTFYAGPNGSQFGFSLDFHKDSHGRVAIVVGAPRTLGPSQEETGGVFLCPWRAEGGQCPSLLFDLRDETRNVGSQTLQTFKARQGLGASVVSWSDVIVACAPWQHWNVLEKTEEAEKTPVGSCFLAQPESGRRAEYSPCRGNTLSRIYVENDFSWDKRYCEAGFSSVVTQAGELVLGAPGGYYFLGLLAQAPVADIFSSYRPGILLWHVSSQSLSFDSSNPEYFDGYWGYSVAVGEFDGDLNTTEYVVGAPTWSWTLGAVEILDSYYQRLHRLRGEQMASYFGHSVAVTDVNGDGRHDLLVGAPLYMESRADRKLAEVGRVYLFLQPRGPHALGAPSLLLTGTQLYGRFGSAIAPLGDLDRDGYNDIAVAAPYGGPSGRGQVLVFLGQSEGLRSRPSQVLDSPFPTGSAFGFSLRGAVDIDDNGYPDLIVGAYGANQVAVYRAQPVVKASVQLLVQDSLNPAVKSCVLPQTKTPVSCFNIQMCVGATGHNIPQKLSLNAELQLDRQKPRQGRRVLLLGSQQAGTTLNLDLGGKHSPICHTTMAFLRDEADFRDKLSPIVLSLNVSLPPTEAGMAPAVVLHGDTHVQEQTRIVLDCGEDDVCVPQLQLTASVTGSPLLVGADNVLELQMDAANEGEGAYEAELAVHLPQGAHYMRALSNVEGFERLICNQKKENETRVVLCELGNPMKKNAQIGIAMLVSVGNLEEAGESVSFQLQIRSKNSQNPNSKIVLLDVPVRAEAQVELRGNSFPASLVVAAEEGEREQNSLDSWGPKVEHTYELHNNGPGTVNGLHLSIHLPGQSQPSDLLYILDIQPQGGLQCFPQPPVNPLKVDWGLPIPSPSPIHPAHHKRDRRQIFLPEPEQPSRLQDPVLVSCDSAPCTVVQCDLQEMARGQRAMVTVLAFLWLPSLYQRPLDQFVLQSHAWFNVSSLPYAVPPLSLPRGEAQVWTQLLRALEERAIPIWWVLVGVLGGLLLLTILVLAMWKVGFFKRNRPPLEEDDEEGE
Chain of ADP-induced human platelet aggregation (P05106 27-788): as the sequence (P05106 27-788) above
Description: In addition to the above plate assays, other assays for platelet aggregation inhibition activity and related activities are also available, as set forth above. In summary, a list of commonly employed assays is as follows: • 1. The plate assays utilizing specific receptors described in the previous paragraphs; • 2. Standard assays directly applied to platelet aggregation, such as those described by Gann, Z.-R., et al., J Biol Chem (1988) 263:19827-19832; Huang, T.F., et al., J Biol Chem (1987) 262:16157-16163; Biochemistry (1989) 28:661-666, cited above and incorporated herein by reference; • 3. An in vivo thrombosis model in dogs as described by Folts, J.D., et al., Circulation (1976) 54:365; and • 4. Effect on cell adhesion using S35 methionine-labeled cells as described hereinbelow in Example 10.
IC50 values for the analogs of the invention in this assay are as follows:
A solution was formed in 1.0 M citric acid of greater than 95% pure cyclic form of Mpr-L-homoarginine-Gly-Asp-Trp-Pro-Cys-NH2 • acetate polypeptide (I) at a concentration of up to 200 mg per ml of solution. This solution was diluted to the desired final peptide concentration as follows: This solution was first diluted to about 85% of the final volume with water. The pH of the solution was adjusted to 5.0-5.5 using sodium hydroxide. The solution was then diluted to the final volume with water. Compositions having a concentration of (I) of 0.5 mg/ml and 5.0 mg/ml were formulated and evaluated for stability by HPLC, UV and visual inspection as described in Example 1. The compositions were also evaluated for platelet aggregation inhibiting activity using the assay described above.

[4] = Storage stability of polypeptide in citrate buffer solution, analysed by reversed phase HPLC; type: physicochemical; design: key: % of main peak of original polypeptide found by HPLC; conditions: 25 mM citrate buffer pH 5.25, about 1 mg/mL
[5] = test system: M21 melanoma cells; test: Cell adhesion assay: 35S-methionine labelled cells on vitronectin-coated plates; type: cell-based; conditions: for effect on cell adhesion / attachment to vitronectin (in words): M21 melanoma cells, vitronectin-coated plates
Experimental: M21 melanoma cells were labelled with ^35S-methionine, and then added to vitronectin-coated plates in the presence of the indicated concentrations of purified snake venom peptides. Cell attachment was measured by solubilizing the cells remaining after an incubation and wash, as previously describe.

[6] = biological target: vitronectin receptor (Homo sapiens, UniProt P05106+P06756); test: Plate assay: inhibition of vitronectin binding to vitronectin receptor; conditions: at concentrations up to 1 uM
Chain of vitronectin receptor (P06756 31-889 limits assumed): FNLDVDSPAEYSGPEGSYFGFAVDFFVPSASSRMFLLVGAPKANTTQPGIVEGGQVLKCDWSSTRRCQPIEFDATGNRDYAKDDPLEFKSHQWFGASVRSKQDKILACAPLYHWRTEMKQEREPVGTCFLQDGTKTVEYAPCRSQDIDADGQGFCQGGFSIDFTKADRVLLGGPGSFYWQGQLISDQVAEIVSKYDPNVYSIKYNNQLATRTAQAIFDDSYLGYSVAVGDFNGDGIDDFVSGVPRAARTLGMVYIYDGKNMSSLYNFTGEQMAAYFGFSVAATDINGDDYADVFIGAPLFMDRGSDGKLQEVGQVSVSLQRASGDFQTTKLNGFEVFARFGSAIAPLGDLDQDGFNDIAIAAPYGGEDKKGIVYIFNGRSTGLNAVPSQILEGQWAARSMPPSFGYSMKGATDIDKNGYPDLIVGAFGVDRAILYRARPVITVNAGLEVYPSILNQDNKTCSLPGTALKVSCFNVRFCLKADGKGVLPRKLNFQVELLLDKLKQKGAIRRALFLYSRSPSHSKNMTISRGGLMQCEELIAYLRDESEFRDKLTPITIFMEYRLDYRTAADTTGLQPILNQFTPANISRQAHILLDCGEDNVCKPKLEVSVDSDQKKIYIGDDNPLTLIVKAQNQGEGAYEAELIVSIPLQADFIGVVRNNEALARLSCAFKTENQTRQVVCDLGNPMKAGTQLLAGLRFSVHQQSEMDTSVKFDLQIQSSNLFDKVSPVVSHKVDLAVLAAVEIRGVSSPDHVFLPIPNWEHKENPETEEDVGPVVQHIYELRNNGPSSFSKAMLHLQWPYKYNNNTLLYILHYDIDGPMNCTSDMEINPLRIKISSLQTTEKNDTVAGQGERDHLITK
Chain of vitronectin receptor (P06756 891-1048 limits assumed): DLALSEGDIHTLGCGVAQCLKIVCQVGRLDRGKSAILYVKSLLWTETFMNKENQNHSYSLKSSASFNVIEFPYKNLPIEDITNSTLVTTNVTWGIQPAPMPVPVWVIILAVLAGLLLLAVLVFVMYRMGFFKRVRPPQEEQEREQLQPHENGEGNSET
Chain of vitronectin receptor (P05106 27-788): as the sequence (P05106 27-788) above
Description: The PAI assay systems further include characterization of the PAI specificity by binding inhibition assays identical to that above but substituting other adhesive proteins for Fg and other receptors for GP IIb-IIIa. In particular, inhibition of the binding of vitronectin to the vitronectin receptor; fibronectin to the fibronectin receptor; fibronectin to GP IIb-IIIa and fibrinogen and/or vWF to GP IIb-IIIa can be assessed. The adhesive protein and receptors for these assays are available in the art.

## Mpr-L-homoarginine-Gly-Asp-Trp-Pro-Cys-NH2 • acetate
[1]; Example 1: 2 mg/ml in citrate buffer pH 5.00 and 5.50, about 4°C
  stability of liquid solution (in words): very stable
[1]; Example 1: 2 mg/ml in citrate buffer pH 5.00 and 5.50, up to about 50°C
  stability of liquid solution (in words): still stable
[1]; Example 1: citrate buffer pH 5.00 and 5.50, 70°C, in comparison to citrate buffer solutions at pH 6.0
  stability of liquid solution (in words): much more stable

## C[C@H](NC(=O)[C@@H]1CSSC[C@H](NC(=O)CN)C(=O)N[C@@H](CCCCN)C(=O)NCC(=O)N[C@@H](CC(=O)O)C(=O)N[C@@H](Cc2c[nH]c3ccccc23)C(=O)N1)C(N)=O [Analog #7] (H-GCKGDWCA-NH2; disulfide 2-7)
[2]
  differential: inhibiting the binding of fibrinogen to GP IIb-IIIa as compared to vitronectin to vitronectin receptor (in words): quite specific
[3]
  platelet aggregation inhibition activity (in words): excellent platelet aggregation inhibition activities

## C[C@H](NC(=O)[C@@H]1CSSC[C@H](NC(=O)CN)C(=O)N[C@@H](CCCCN)C(=O)NCC(=O)N[C@@H](CC(=O)O)C(=O)N[C@@H](Cc2c[nH]c3ccccc23)C(=O)N2CCC[C@H]2C(=O)N1)C(N)=O [Analog #4] (H-GCKGDWPCA-NH2; disulfide 2-8)
[2]
  differential: inhibiting the binding of fibrinogen to GP IIb-IIIa as compared to vitronectin to vitronectin receptor (in words): highest differential

## NCCCC[C@@H]1NC(=O)CNC(=O)[C@@H](N)CSSC[C@@H](C(N)=O)NC(=O)[C@@H]2CCCN2C(=O)[C@H](Cc2c[nH]c3ccccc23)NC(=O)[C@H](CC(=O)O)NC(=O)CNC1=O [Analog #5] (H-CGKGDWPC-NH2; disulfide 1-8)
[2]
  differential: inhibiting the binding of fibrinogen to GP IIb-IIIa as compared to vitronectin to vitronectin receptor (in words): quite specific
[3]
  platelet aggregation inhibition activity (in words): excellent platelet aggregation inhibition activities

## NCCCC[C@@H]1NC(=O)CCSSC[C@@H](C(N)=O)NC(=O)[C@@H]2CCCN2C(=O)[C@H](Cc2c[nH]c3ccccc23)NC(=O)[C@H](CC(=O)O)NC(=O)CNC1=O [Analog #19, Mpr-K-G-D-W-P-C-NH2] ([Mpa]KGDWPC-NH2; disulfide 1-7 (inferred))
[3]
  platelet aggregation inhibition activity (in words): good platelet aggregation inhibition activity

## Mpr-Ala-(Har)-G-D-W-P-C-NH2
[4]; 5°C, 0 days
  stability by HPLC: 99.6
[4]; 5°C, 29 days
  stability by HPLC: 98.1
[4]; 5°C, 60 days
  stability by HPLC: 98.3
[4]; 5°C, 90 days
  stability by HPLC: 97.3
[4]; 30°C, 29 days
  stability by HPLC: 97.3
[4]; 30°C, 60 days
  stability by HPLC: 97.3
[4]; 30°C, 90 days
  stability by HPLC: 96.5
[4]; 45°C, 29 days
  stability by HPLC: 95.4
[4]; 45°C, 60 days
  stability by HPLC: 92.6
[4]; 45°C, 90 days
  stability by HPLC: 90.6

## C[C@H](NC(=O)[C@@H]1CSSC[C@H](NC(=O)CN)C(=O)NCC(=O)N[C@@H](CCCCN)C(=O)NCC(=O)N[C@@H](CC(=O)O)C(=O)N[C@@H](Cc2c[nH]c3ccccc23)C(=O)N2CCC[C@H]2C(=O)N1)C(N)=O [Analog #3, G-C-G-K-G-D-W-P-C-A-NH2]
[5]; up to 60 uM
  effect on M21 cell attachment to vitronectin (in words): ineffective

## [E^28L^41C^64]barbourin (28-73):E-C-A-D-G-L-C-C-D-O-CRFLKKGTVCRVAKGDWNDDTCTG-O-S-C-D-C-P-R-N-G-L-Y-G [Analog #1]
[5]
  effect on cell adhesion / attachment to vitronectin (in words): Neither barbourin nor Peptide 1 (truncated barbourin) had a significant effect
[2]
  affinity for GP IIb-IIIa (ability to inhibit the binding of fibrinogen to GP IIb-IIIa): high affinity
[3]
  platelet aggregation inhibition activity (in words): potent inhibitors of platelet aggregation
[6]
  affinity for VnR: relative lack of affinity

## C[C@H](NC(=O)[C@@H]1CSSC[C@H](NC(=O)CN)C(=O)NCC(=O)N[C@@H](CCCNC(=N)N)C(=O)NCC(=O)N[C@@H](CC(=O)O)C(=O)N[C@@H](Cc2c[nH]c3ccccc23)C(=O)N2CCC[C@H]2C(=O)N1)C(N)=O [reference compound] (H-GCGRGDWPCA-NH2; disulfide 2-9)
[5]
  effect on cell adhesion / attachment to vitronectin (in words): potent inhibitors of cell attachment

## N=C(N)NCCCC[C@@H]1NC(=O)CCSSC[C@@H](C(N)=O)NC(=O)[C@@H]2CCCN2C(=O)[C@H](Cc2c[nH]c3ccccc23)NC(=O)[C@H](CC(=O)O)NC(=O)CNC1=O [Analog #60, Mpr-(Har)-G-D-W-P-C-NH2] ([Mpa][hArg]GDWPC-NH2; disulfide 1-7 (inferred))
[5]
  effect on cell adhesion / attachment to vitronectin (in words): relatively less effective
[3]
  platelet aggregation inhibition activity (in words): efficient at vanishingly small concentrations
